From US20160046592A1, “PHARMACEUTICAL COMPOSITION FOR THE TREATMENT OF DIABETES” (Ajinomoto Co., Inc., priority 2013, published 2016)

The compounds below were run against T1, human GYS1 (glycogen synthase) (Homo sapiens, UniProt P13807) (assay: Measurement of glycogen synthase activity). Settings: concentration causing 50% increase in relative activity; 100% = compound of Example 1 of WO/2011/058154 at 10 μM; 10 mM Glucose-6-phosphate; 37° C. for 25 minutes (Examples 1 to 61 and 67 to 82) or 20 minutes (Examples 62 to 66); absorbance at 340 nm.
T1 construct: made in house; host or cells: HEK293T
T1 sequence (P13807 1-737): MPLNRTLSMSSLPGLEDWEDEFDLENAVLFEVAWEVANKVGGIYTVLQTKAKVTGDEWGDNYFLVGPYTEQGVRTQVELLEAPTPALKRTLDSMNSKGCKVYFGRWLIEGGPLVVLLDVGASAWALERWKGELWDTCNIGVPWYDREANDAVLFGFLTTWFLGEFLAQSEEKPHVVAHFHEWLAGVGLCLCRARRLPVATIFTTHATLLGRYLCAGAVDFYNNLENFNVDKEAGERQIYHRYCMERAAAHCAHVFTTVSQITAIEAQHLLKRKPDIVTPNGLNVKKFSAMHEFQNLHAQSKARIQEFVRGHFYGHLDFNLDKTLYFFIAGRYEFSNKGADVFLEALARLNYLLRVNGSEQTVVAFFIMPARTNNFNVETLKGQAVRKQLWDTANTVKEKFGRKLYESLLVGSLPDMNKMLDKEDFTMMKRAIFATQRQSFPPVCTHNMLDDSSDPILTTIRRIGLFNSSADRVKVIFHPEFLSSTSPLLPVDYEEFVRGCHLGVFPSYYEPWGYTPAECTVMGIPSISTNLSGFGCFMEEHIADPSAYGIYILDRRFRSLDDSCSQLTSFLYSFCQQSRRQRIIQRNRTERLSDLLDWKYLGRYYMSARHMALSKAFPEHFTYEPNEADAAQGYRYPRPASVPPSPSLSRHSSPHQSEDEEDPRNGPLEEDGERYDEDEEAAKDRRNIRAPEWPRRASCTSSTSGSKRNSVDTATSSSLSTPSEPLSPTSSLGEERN
Type: biochemical
Method in brief: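 Human GYS1 from transfected HEK293T cells (re-dissolved 16000×g pellet) was reacted at 37 °C for 25 or 20 min in glycylglycine pH 7.3 with glucose-6-phosphate, glycogen and UDP-glucose. PK/LDH-coupled NADH read-out at 340 nm; EC50 from activity relative to a reference activator at 10 μM final (100%).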

Compared with `CNS(=O)(=O)CCN(CC(=O)O)C(=O)c1cccc(COc2ccc(-c3cc(F)c(F)cc3SC)cc2)c1` [Example 56, 2-[[3-[[4-(4,5-Difluoro-2-methylsulfanyl-phenyl)phenoxy]methyl]benzoyl]-[2-(methylsulfamoyl)ethyl]amino]acetic Acid], `CSc1cc(F)c(F)cc1-c1ccc(OCc2cccc(C(=O)N(CCS(=O)(=O)N(C)C)CC(=O)O)c2)cc1` [Example 59, 2-[[3-[[4-(4,5-Difluoro-2-methylsulfanyl-phenyl)phenoxy]methyl]benzoyl]-[2-(dimethylsulfamoyl)ethyl]amino]acetic Acid] is higher in EC50: less than 3 nM for the first, 16 nM for the second.

Compared with `CSc1cc(F)c(F)cc1-c1ccc(OCc2cccc(C(=O)N(CCc3noc(C)n3)CC(=O)O)c2)cc1` [Example 60, 2-[[3-[[4-(4,5-Difluoro-2-methylsulfanyl-phenyl)phenoxy]methyl]benzoyl]-[2-(5-methyl-1,2,4-oxadiazol-3-yl)ethyl]amino]acetic Acid], `CSc1cc(F)c(F)cc1-c1ccc(OCc2cccc(C(=O)N(CC(=O)O)Cc3noc(C)n3)c2)cc1` [Example 69, 2-[[3-[[4-(4,5-Difluoro-2-methylsulfanyl-phenyl)phenoxy]methyl]benzoyl]-[(5-methyl-1,2,4-oxadiazol-3-yl)methyl]amino]acetic Acid] is 1.8-fold higher in EC50: 11 nM for the first, 20 nM for the second.

`CSc1cc(F)c(F)cc1-c1ccc(OCc2cccc(C(=O)N3C[C@H](C(N)=O)C[C@H]3C(=O)O)c2)cc1` [Example 61, (2S,4R)-4-Carbamoyl-1-[3-[[4-(4,5-difluoro-2-methylsulfanyl-phenyl)phenoxy]methyl]benzoyl]pyrrolidine-2-carboxylic Acid] and `CSc1cc(F)c(F)cc1-c1ccc(OCc2cccc(C(=O)N3[C@@H](CO)CC[C@H]3C(=O)O)c2)cc1` [Example 64, (2S,5R)-1-[3-[[4-(4,5-Difluoro-2-methylsulfanyl-phenyl)phenoxy]methyl]benzoyl]-5-(hydroxymethyl)pyrrolidine-2-carboxylic Acid] are within 1.5-fold of each other in EC50: 19 nM for the first, 22 nM for the second.

Compared with `COC[C@H]1CC[C@@H](C(=O)O)N1C(=O)c1cccc(COc2ccc(-c3cc(F)c(F)cc3SC)cc2)c1` [Example 65, (2S,5R)-1-[3-[[4-(4,5-Difluoro-2-methylsulfanyl-phenyl)phenoxy]methyl]benzoyl]-5-(methoxymethyl)pyrrolidine-2-carboxylic Acid], `CSc1cc(F)c(F)cc1-c1ccc(OCc2cccc(C(=O)N3C(CC#N)CC[C@H]3C(=O)O)c2)cc1` (stereo partly drawn) [Example 72, (2S)-5-(Cyanomethyl)-1-[3-[[4-(4,5-difluoro-2-methylsulfanyl-phenyl)phenoxy]methyl]benzoyl]pyrrolidine-2-carboxylic Acid] is 1.6-fold lower in EC50: 18 nM for the first, 11 nM for the second. The second is the more potent here.

`CSc1cc(F)c(F)cc1-c1ccc(OCc2cccc(C(=O)N(CC(=O)O)Cc3ccon3)c2)cc1` [Example 66, 2-[[3-[[4-(4,5-Difluoro-2-methylsulfanyl-phenyl)phenoxy]methyl]benzoyl]-(isoxazol-3-ylmethyl)amino]acetic Acid] and `CSc1cc(F)c(F)cc1-c1ccc(OCc2cccc(C(=O)N(CC(=O)O)Cc3cscn3)c2)cc1` [Example 71, 2-[[3-[[4-(4,5-Difluoro-2-methylsulfanyl-phenyl)phenoxy]methyl]benzoyl]-(thiazol-4-ylmethyl)amino]acetic Acid] are within 1.5-fold of each other in EC50: 15 nM for the first, 17 nM for the second.

Compared with `CSc1cc(F)c(F)cc1-c1ccc(OCc2cccc(C(=O)N(CC(=O)O)Cc3coc(C)n3)c2)cc1` [Example 67, 2-[[3-[[4-(4,5-Difluoro-2-methylsulfanyl-phenyl)phenoxy]methyl]benzoyl]-[(2-methyloxazol-4-yl)methyl]amino]acetic Acid], `CSc1cc(F)c(F)cc1-c1ccc(OCc2cccc(C(=O)N(CC(=O)O)Cc3nc(C)no3)c2)cc1` [Example 68, 2-[[3-[[4-(4,5-Difluoro-2-methylsulfanyl-phenyl)phenoxy]methyl]benzoyl]-[(3-methyl-1,2,4-oxadiazol-5-yl)methyl]amino]acetic Acid] is lower in EC50: 13 nM for the first, less than 3 nM for the second. The second is the more potent here.

First: CSc1cc(F)c(F)cc1-c1ccc(OCc2cccc(C(=O)N(CCn3cncn3)CC(=O)O)c2)cc1 [Example 70, 2-[[3-[[4-(4,5-Difluoro-2-methylsulfanyl-phenyl)phenoxy]methyl]benzoyl]-[2-(1,2,4-triazol-1-yl)ethyl]amino]acetic Acid]
Second: CSc1cc(F)c(F)cc1-c1ccc(OCc2cccc(C(=O)N(CC(=O)O)Cc3cn(C)cn3)c2)cc1 [Example 74, 2-[[3-[[4-(4,5-Difluoro-2-methylsulfanyl-phenyl)phenoxy]methyl]benzoyl]-[(1-methylimidazol-4-yl)methyl]amino]acetic Acid]
The EC50 of the first is 2.6-fold higher: 21 nM for the first, 8 nM for the second. The second is the more potent here.

`CSc1cc(F)c(F)cc1-c1ccc(OCc2cccc(C(=O)N(CC(=O)O)Cc3nnc(C)o3)c2)cc1` [Example 73, 2-[[3-[[4-(4,5-Difluoro-2-methylsulfanyl-phenyl)phenoxy]methyl]benzoyl]-[(5-methyl-1,3,4-oxadiazol-2-yl)methyl]amino]acetic Acid] and `NC(=O)CCN(CC(=O)O)C(=O)c1cccc(COc2ccc(-c3cc(F)c(F)c4ccoc34)cc2)c1` [Example 79, 2-[(3-Amino-3-oxo-propyl)-[3-[[4-(4,5-difluorobenzofuran-7-yl)phenoxy]methyl]benzoyl]amino]acetic Acid] are within 1.5-fold of each other in EC50: 15 nM for the first, 22 nM for the second.

`N#CCCN(CC(=O)O)C(=O)c1cccc(COc2ccc(-c3cc(F)c(F)c4ccoc34)cc2)c1` [Example 75, 2-[2-Cyanoethyl-[3-[[4-(4,5-difluorobenzofuran-7-yl)phenoxy]methyl]benzoyl]amino]acetic Acid] and `CS(=O)(=O)CCCN(CC(=O)O)C(=O)c1cccc(COc2ccc(-c3cc(F)c(F)c4ccoc34)cc2)c1` [Example 77, 2-[[3-[[4-(4,5-Difluorobenzofuran-7-yl)phenoxy]methyl]benzoyl]-(3-methylsulfonylpropyl)amino]acetic Acid] are within 1.5-fold of each other in EC50: 22 nM for the first, 20 nM for the second.

`CO[C@H]1CCN(C(=O)c2cccc(COc3ccc(-c4cc(F)c(F)c5ccoc45)cc3)c2)[C@@H]1C(=O)O` [Example 78, (2S,3S)-1-[3-[[4-(4,5-Difluorobenzofuran-7-yl)phenoxy]methyl]benzoyl]-3-methoxy-pyrrolidine-2-carboxylic Acid] and `COC[C@H](C)N(CC(=O)O)C(=O)c1cccc(COc2ccc(-c3cc(F)c(F)c4ccoc34)cc2)c1` [Example 80, 2-[[3-[[4-(4,5-Difluorobenzofuran-7-yl)phenoxy]methyl]benzoyl]-[(1S)-2-methoxy-1-methyl-ethyl]amino]acetic Acid] are within 1.5-fold of each other in EC50: 20 nM for the first, 24 nM for the second.

`CC(=O)N1CCC(CN(CC(=O)O)C(=O)c2cccc(COc3ccc(-c4cc(F)c(F)c5ccoc45)cc3)c2)CC1` [Example 81, 2-[(1-Acetyl-4-piperidyl)methyl-[3-[[4-(4,5-difluorobenzofuran-7-yl)phenoxy]methyl]benzoyl]amino]acetic Acid] and `O=C(O)CN(C(=O)c1cccc(COc2ccc(-c3cc(F)c(F)c4ccoc34)cc2)c1)C1CCNC1=O` (stereo not shown) [Example 82, 2-[[3-[[4-(4,5-Difluorobenzofuran-7-yl)phenoxy]methyl]benzoyl]-(2-oxopyrrolidin-3-yl)amino]acetic Acid] are within 1.5-fold of each other in EC50: 20 nM for the first, 19 nM for the second.
